Values quoted from earlier work, collected in patent US11660375B2, “Product and method for the treatment of bioprosthetic tissues” (Epygon, priority 2017, dated 2023).
Like-named read-outs stand apart in the source and are kept apart here.

Columns and labels:
[1] = test system: pericardium samples pretreated with 0.6% Glutaraldehyde; details: after 6 months implantation, juvenile rats, subcutaneous
[2] = at 25° C.
[3] = test system: porcine aortic cusps
[4] = oral administration; IPCS, WHO Food Additives Series 32
[5] = test system: porcine aortic valve cusps; details: rat subdermal, 60 days, pretreatment pH 7.4 for 24 hours
[6] = test system: Porcine aortic valve bioprostheses; details: sheep, 150 days, leaflet calcium

In the case of CCCCCCCC/C=C\CCCCCCCC(=O)OCCOCC(OCCO)C1OCC(OCCO)C1OCCO (stereo not drawn) [surfactant, Tween 80], the calcium content [1] is listed as 42.9±12.7 μg/mg dry tissue.
For OC[C@H]1O[C@@H]2O[C@H]3[C@H](O)[C@@H](O)[C@@H](O[C@H]4[C@H](O)[C@@H](O)[C@@H](O[C@H]5[C@H](O)[C@@H](O)[C@@H](O[C@H]6[C@H](O)[C@@H](O)[C@@H](O[C@H]7[C@H](O)[C@@H](O)[C@@H](O[C@H]8[C@H](O)[C@@H](O)[C@@H](O[C@H]9[C@H](O)[C@@H](O)[C@@H](O[C@H]1[C@H](O)[C@H]2O)O[C@@H]9CO)O[C@@H]8CO)O[C@@H]7CO)O[C@@H]6CO)O[C@@H]5CO)O[C@@H]4CO)O[C@@H]3CO [γ-Cyclodextrin], the “toxicity on parenteral administration” value is listed as “appear to be safe”.
For OC[C@H]1O[C@H](O[C@H]2[C@H](O)[C@@H](O)[C@@H](OC[C@H]3O[C@@H]4O[C@H]5[C@H](O)[C@@H](O)[C@@H](O[C@H]6[C@H](O)[C@@H](O)[C@@H](O[C@H]7[C@H](O)[C@@H](O)C(O[C@H]8[C@H](O)[C@@H](O)[C@@H](O[C@H]9[C@H](O)[C@@H](O)[C@@H](O[C@H]%10[C@H](O)[C@@H](O)[C@@H](O[C@H]3[C@H](O)[C@H]4O)O[C@@H]%10CO)O[C@@H]9CO)O[C@@H]8CO)O[C@@H]7CO)O[C@@H]6CO)O[C@@H]5CO)O[C@@H]2CO)[C@H](O)[C@@H](O)[C@@H]1O [Maltosyl β-Cyclodextrin], the “toxicity on parenteral administration” value is listed as “appear to be safe”.
For OC[C@H]1O[C@@H]2O[C@H]3[C@H](O)[C@@H](O)[C@@H](O[C@H]4[C@H](O)[C@@H](O)[C@@H](O[C@H]5[C@H](O)[C@@H](O)[C@@H](O[C@H]6[C@H](O)[C@@H](O)[C@@H](O[C@H]7[C@H](O)[C@@H](O)[C@@H](O[C@H]1[C@H](O)[C@H]2O)O[C@@H]7CO)O[C@@H]6CO)O[C@@H]5CO)O[C@@H]4CO)O[C@@H]3CO [α-Cyclodextrins, α-Cyclodextrin], the “toxicity on parenteral administration” value is given as “don't show any toxicity”.
In the case of “Sulfobutyl Ether7 β-Cyclodextrin [SBE7 β-CD]”, the water solubility [2] is given as about 70 g/100 ml and the “toxicity on parenteral administration” value is given as “appear to be safe”.
For CCO [Ethanol], the Ca [3] is listed as 13.3+/−5.6 μg/mg tissue.
For Sulphated β-Cyclodextrin, the “toxicity on parenteral administration” value is listed as “appear to be safe”.
In the case of OC[C@H]1O[C@@H]2O[C@H]3[C@H](O)[C@@H](O)[C@@H](O[C@H]4[C@H](O)[C@@H](O)[C@@H](O[C@H]5[C@H](O)[C@@H](O)[C@@H](O[C@H]6[C@H](O)[C@@H](O)[C@@H](O[C@H]7[C@H](O)[C@@H](O)[C@@H](O[C@H]8[C@H](O)[C@@H](O)[C@@H](O[C@H]1[C@H](O)[C@H]2O)O[C@@H]8CO)O[C@@H]7CO)O[C@@H]6CO)O[C@@H]5CO)O[C@@H]4CO)O[C@@H]3CO [β-Cyclodextrin], the acceptable daily intake [4] is listed as 5 mg/kg of body weight and the “toxicity on parenteral administration” value is listed as “nephrotoxic”.
For “2-hydroxypropyl β-Cyclodextrin [HP p-CD]”, the “toxicity on parenteral administration” value is given as “don't show any toxicity” and the “toxicity on parenteral administration” value (listed as 2-hydroxypropyl β-Cyclodextrin) is given as “appear to be safe”.
In the case of CCO [80% Ethanol, Ethanol], the calcium level ([5]; listed as 80.0% Ethanol) is given as 1.87±0.29 μg/mg tissue and the Ca [6] is given as 5.22 ± 2.94.
In the case of CCO [60% Ethanol, Ethanol], the calcium level ([5]; listed as 60.0% Ethanol) is given as 28.5±12.0 μg/mg tissue.
